Laboratory results: article PMC4725915, “Ruthenium(II) Complexes with 2-Phenylimidazo[4,5-f][1,10]phenanthroline Derivatives that Strongly Combat Cisplatin-Resistant Tumor Cells” (Scientific Reports, 2016)

Test system: A549R cells
Test: Subcellular distribution study by ICP-MS
Format: cell-based, human
Conditions: 2.0 μM, 12 h
Experimental: To understand the high sensitivity of cancer cells to Ru(II) complexes, the extent of cellular uptake was investigated with inductively coupled plasma mass spectrometry (ICP-MS) by treating the HeLa, A549, A549R and LO2 cell lines with 2.0 μM concentrations of the Ru(II) complexes and cisplatin for 12 h. […] In this study, the cellular uptake and lipophilicity were distinctly correlated and followed the order: 4 >3 >2 >1. Complex 4 had the best accumulation, but the amount of Ru in LO2 cells was far less than that in the three cancer lines, indicating selective accumulation and improved efficiency for treating cancer. Cisplatin was taken up more efficiently by the sensitive cell line (A549) than by the cisplatin-resistant cell line (A549R). […] However, less than 1.5% of the cellular platinum was accumulated in the mitochondrial fraction of the A549R cells. Therefore, complex 4 could function in a different manner than cisplatin in A549R cells, which would be an appropriate solution to combat cisplatin resistance in tumor cells.
A549R cells were plated at a density of 1 × 10^5 cells/mL in 10 mL of DMEM for 24 h at 37 °C under 5% CO2 and 20% O2. […] The ruthenium or platinum contents were determined using inductively coupled plasma mass spectrometry (ICP-MS Thermo Elemental Co., Ltd.).

## Ru(phen)(bzq)(tbtfpip)(PF6) [Complex 4]
  share of cellular metal accumulated in the mitochondrial fraction: over 55%
